The text below walks through data of patent US20260356823A1, “SODIUM CHANNEL REGULATOR AND USE THEREOF” (SHANGHAI HUILUN PHARMACEUTICAL CO., LTD., priority 2022, published 2026).

Series [1] can be described thus: Efficacy on a mouse model of incisional pain, mechanical pain threshold (PWT). Format: in vivo. The following applies: intravenous. The text has this: Bioactivity Test 3: Efficacy of the Compound on a Mouse Model of Incisional Pain
Model establishment: Through isoflurane anesthesia and routine disinfection, a 0.5 cm longitudinal skin incision extending to the toe was made with a blade on the plantar surface of the left hindfoot about 0.2 cm distal to the joint; and the plantar muscle was separated, slightly elevated, and then incised longitudinally, taking care not to disrupt the muscle origin. The incision was sutured horizontally and interruptedly with 5-0 nylon thread (2 sutures).
Solvents: A solvent for the test compound was 5% DMSO+10% Solutol+85% Saline, and a solvent for a positive compound TRV-130 was 10% ethanol+10% cremophor+80% water. […]
Mechanical pain threshold measurement: Before modeling, a pre-modeling mechanical pain threshold was measured. At 2.5 h after modeling, a pre-administration mechanical pain threshold was measured. Oral administration was carried out after the measurement, and a mechanical pain threshold was measured at 2 h after the administration. […] Each animal was measured three times at intervals of 3-5 minutes, and an average value was calculated.
Data analysis: Relevant data was organized in Office Excel 2013 and GraphPad Prism 6.0. Data was expressed as Mean±SEM (standard error). […]

In series [2] the target is T1, human Nav1.8 (Homo sapiens, UniProt Q9Y5Y9).
T1 construct: expressed in transfected cells
As to the kind of experiment: In vitro inhibition of Nav1.8, manual patch clamp on HEK293 cells stably expressing human Nav1.8. It is filed as cell-based. To be noted: HEK293, 100 nM, human Nav1.8, manual patch clamp, read-out: Inhibitory activity (inhibition/% at 100 nM concentration). How it is done:
Bioactivity Test 1: In Vitro Inhibition of Nav1.8 by the Compound
By using a manual patch clamp on HEK293 cells stably expressing human Nav1.8, currents on Nav1.8 before and after administration of the compound were compared after the currents on Nav1.8 were stable, to obtain the effect of the compound on the Nav1.8 channel.
The to-be-tested compound was dissolved in DMSO to prepare a 9 mM stock solution, which was taken and dissolved in extracellular fluid at a desired concentration on the day of testing. The extracellular fluid included the following ingredients (mM): NaCl, 137; KCl, 4; CaCl2, 1.8; MgCl2, 1; HEPES, 10; glucose, 10; and pH 7.4 (NaOH titration). All reagents were purchased from Sigma (St. Louis, MO).
The cells were clamped at −80 mV and depolarized with a sustained 10 ms square wave to 10 mV to obtain a current on Nav1.8. This process was repeated every 5 seconds. A maximum current caused by the square wave was detected. After the current is stable, the to-be-tested compound (dissolved in the extracellular fluid at the desired concentration) was perfused. After the current is stable, the strength of blocking Nav1.8 by the compound was calculated based on the currents before and after perfusion of the compound. pCLAMP 10 (Molecular Devices, Union City, CA) was used. That the current is stable means that the current changes over time within a limited range.
(In general: The patch-clamp technique gives a direct electrical read-out from membranes.)

Series [3] has as its target T2, Nav1.8 sodium channel (Homo sapiens, UniProt Q9Y5Y9).
T2 construct: expressed in transfected cells
As to the kind of experiment: In vitro inhibition IC50 of Nav1.8, whole-cell patch clamp on CHO cell line stably expressing Nav1.8 (SCN10A, NM_006514). Format: cell-based. The following applies: CHO cells stably expressing Nav1.8, whole-cell patch clamp, room temperature. From the text: Bioactivity Test 2: In Vitro Inhibition IC50 of Nav1.8 by the Test Compound
A CHO cell line stably expressing the Nav1.8 sodium channel was used for experimental assays with the following gene information: Sodium channel, voltage-gated, type 8, alpha (SCN10A), cDNA strictly similar to GenBank accession number: NM_006514.
Before the patch clamp assay, the cells were detached with 0.25%-Trypsin-EDTA, and 6.5×10^3 cells were spread onto cover slips and cultured in a 24-well plate (final volume: 500 μL) for 18 h. Then, the assay was carried out.
Fluids for electrophysiological recording included: extracellular fluid: K-007-1, 140 mM NaCl, 3.5 mM KCl, 1 mM MgCl2·6H2O, 2 mM CaCl2·2H2O, 10 mM D-Glucose, 10 mM HEPES, 1.25 mM NaH2PO4·2H2O, and NaOH for adjustment to pH=7.4; and intracellular fluid: Nav-001-2, 50 mM CsCl, 10 mM NaCl, 10 mM HEPES, 60 mM CsF, 20 mM EGTA, and […]. The extracellular fluid was stored for 2 weeks. The intracellular fluid was prepared and dispensed as 1 mL per tube, and frozen in a refrigerator at −20° C. Freshly thawed intracellular fluid was used for daily experiments. All intracellular fluids have to be used up within three months. Beyond three months, the old intracellular fluid has to be discarded, and the intracellular fluid needs to be prepared again.
Patch clamp assay: Whole-cell patch-clamp recording Nav1.8 sodium currents under voltage stimulation was carried out as follows: When a whole-cell seal was formed, the cell was clamped at a voltage of −120 mV and maintained for 30 ms. The cell was depolarized from the clamping voltage to 0 mV and maintained for 50 ms. Then, the voltage was restored to −50 mV (for a specific voltage, refer to a half-inactivation voltage from an IV test) and maintained for 5 s. Next, the cell membrane potential was restored to −120 mV and maintained for 20 ms. Then, the cell was depolarized to 0 mV and maintained for 50 ms. Finally, the voltage was restored to the clamping voltage −120 mV and maintained for 30 ms. Data was collected at […]. The effect of the drug on a peak sodium current was observed. Experimental data was collected by an EPC 10 amplifier (HEKA) and stored in PatchMaster (HEKA) software.
A capillary glass tube was pulled into a recording electrode by using a microelectrode puller. The electrode filled with the intracellular fluid was loaded into an electrode holder. A microelectrode manipulator was manipulated under an inverted microscope to immerse the electrode into the extracellular fluid, and an electrode resistance (Rpip) was recorded. The electrode was brought into contact with the cell surface, and suction was applied under negative pressure to form a high-resistance seal (GQ). In this case, fast capacitance compensation was carried out, and negative pressure was then applied to break the cell membrane through suction to form a whole-cell recording mode. Then, slow capacitance compensation was carried out, and experimental parameters such as a membrane capacitance (Cm) and a series resistance (Rs) were recorded. No leakage compensation was carried out.
The drug was administered after the Nav1.8 current obtained by whole-cell recording. The drug acted at each concentration for 5 min (or until the current was stable), and then the drug was tested at a next concentration. Each test compound was tested for multiple concentrations. The cover slips with the cells spread were placed in a recording bath under an inverted microscope. A blank control extracellular fluid and a working solution of the to-be-tested compound were perfused by gravity through the recording bath into the cells from low concentration to high concentration. Fluid exchange was carried out by using a peristaltic pump during the recording. A current detected for each cell in the compound-free extracellular fluid served as its own control. For each concentration, at least three cells were tested independently for three times. […]

For series [4], the system named is Nav1.8. The following applies: background; cited from earlier work.
For series [5] the following is noted: background; cited from earlier work.

Each structure is given as a SMILES string.

T1 sequence (Q9Y5Y9 whole entry): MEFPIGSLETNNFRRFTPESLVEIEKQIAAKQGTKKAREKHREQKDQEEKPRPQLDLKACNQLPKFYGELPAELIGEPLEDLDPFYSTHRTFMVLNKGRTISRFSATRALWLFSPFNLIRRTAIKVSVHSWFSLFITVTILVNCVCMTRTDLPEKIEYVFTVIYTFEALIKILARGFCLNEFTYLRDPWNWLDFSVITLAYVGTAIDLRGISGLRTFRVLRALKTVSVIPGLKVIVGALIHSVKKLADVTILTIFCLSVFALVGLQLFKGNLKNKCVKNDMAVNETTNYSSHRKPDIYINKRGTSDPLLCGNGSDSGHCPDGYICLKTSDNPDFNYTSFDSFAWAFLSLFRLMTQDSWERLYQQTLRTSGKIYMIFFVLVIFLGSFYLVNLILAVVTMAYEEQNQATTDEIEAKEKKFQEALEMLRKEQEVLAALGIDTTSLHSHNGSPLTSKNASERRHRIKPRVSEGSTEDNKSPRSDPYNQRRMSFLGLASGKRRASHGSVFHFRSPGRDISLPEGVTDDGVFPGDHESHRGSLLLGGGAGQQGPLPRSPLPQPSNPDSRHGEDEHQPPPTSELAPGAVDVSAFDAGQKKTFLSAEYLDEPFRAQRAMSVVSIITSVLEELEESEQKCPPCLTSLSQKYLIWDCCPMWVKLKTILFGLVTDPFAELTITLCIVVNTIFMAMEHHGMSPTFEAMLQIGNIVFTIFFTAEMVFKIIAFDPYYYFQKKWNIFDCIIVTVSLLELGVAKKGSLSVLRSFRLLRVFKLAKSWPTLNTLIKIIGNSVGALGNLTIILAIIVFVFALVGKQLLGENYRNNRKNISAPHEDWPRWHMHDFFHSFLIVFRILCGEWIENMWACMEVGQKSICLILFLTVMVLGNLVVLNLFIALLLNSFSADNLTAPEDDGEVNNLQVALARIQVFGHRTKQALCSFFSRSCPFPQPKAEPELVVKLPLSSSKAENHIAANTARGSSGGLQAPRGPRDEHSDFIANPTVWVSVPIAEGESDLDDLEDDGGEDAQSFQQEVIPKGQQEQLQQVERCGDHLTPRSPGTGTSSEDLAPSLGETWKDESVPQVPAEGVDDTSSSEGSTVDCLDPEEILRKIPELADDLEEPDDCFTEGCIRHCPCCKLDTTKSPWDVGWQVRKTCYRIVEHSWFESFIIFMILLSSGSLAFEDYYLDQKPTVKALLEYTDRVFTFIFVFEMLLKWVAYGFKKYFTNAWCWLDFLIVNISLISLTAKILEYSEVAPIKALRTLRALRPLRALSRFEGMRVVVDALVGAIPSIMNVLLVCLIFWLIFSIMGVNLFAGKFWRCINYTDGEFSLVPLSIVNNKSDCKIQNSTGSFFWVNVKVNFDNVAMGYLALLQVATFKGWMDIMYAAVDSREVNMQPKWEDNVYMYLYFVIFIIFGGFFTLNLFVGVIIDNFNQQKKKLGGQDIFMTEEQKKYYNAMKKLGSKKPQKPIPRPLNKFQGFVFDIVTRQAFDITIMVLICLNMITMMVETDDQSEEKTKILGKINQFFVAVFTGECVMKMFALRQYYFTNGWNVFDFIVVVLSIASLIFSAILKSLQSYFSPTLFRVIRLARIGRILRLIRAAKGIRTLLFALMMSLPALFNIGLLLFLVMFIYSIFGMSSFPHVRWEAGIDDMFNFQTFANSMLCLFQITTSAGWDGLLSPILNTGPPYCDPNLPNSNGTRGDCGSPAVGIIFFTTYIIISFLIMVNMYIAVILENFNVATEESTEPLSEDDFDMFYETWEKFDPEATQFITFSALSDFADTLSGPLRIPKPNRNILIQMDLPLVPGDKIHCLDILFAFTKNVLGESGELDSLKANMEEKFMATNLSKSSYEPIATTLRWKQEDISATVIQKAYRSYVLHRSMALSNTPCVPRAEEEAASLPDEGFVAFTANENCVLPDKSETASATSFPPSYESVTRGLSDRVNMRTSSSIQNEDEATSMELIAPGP
T2 sequence (Q9Y5Y9 whole entry): as above

Take `COc1ccsc1CNCC[C@@]1(c2ccccn2)CCOC2(CCCC2)C1` [TRV-130]: the PWT after modeling in series [1] (TRV-130 0.5 mg/kg group, after modeling, pre-administration, 2.5 h after modeling) was found to be 5.40 g. Also, the “PWT 2 h after administration” value in series [1] (TRV-130 0.5 mg/kg, 2 h after administration) worked out at 8.94 g.

The IC50 is the midpoint of a concentration-inhibition curve. The low end stands for inhibition by little substance, the high end for a need for much substance. For the molecule `COc1c([C@H]2[C@H](C(=O)Nc3ccc4cn[nH]c(=O)c4c3)O[C@@](C)(C(F)(F)F)[C@H]2C)ccc(F)c1F` (relative stereo) [Example 3, rel-(2R,3S,4S,5R)-3-(3,4-difluoro-2-methoxyphenyl)-4,5-dimethyl-N-4-oxa-3,4-dihydrophthalazin-6-yl)-5-(trifluoromethyl)tetrahydrofuran-2-carboxamide], the inhibition at 0.1 µM in series [2] was at least 50%. In series [3], this molecule yielded an IC50 of 9 nM.

Take `COc1c([C@H]2[C@H](C(=O)Nc3ccnc(S(N)(=O)=O)c3)O[C@]3(C(F)(F)F)CC[C@]23C)ccc(F)c1F` (relative stereo) [Example 87, rel-(1R,3R,4S,5R)-4-(3,4-difluoro-2-methoxyphenyl)-5-methyl-N-(2-sulfamoylpyridin-4-yl)-1-trifluoromethyl-2-oxabicyclo[3.2.0]heptane-3-carboxamide]: the inhibition at 0.1 µM in series [2] was at least 50%. Also, half-maximal inhibition in series [3] (IC50) required 3 nM.

For `COc1cc(NC(=O)c2ccc(-c3ccc(Cl)cc3)o2)cc(OC)c1` [Example A-803467], the “selectivity (in words)” value in series [4] was “poor selectivity”. Further, in series [5], the “bioavailability (in words)” value is given as “low bioavailability” and the “pharmacokinetic data (in words)” value is reported as “poor pharmacokinetic data”.

As for `COc1c([C@H]2[C@H](C(=O)Nc3ccnc(C(N)=O)c3)OC3(C(F)(F)F)CCC23C)ccc(F)c1F` (relative stereo) [Example 59, rel-(2R,3S)-4-({[3-(3,4-difluoro-2-methoxyphenyl)-3a-methyl-5a-(trifluoromethyl)hexahydrocyclobuta[2,1-b]furan-2-yl]carbonyl}amino)pyridin-2-carboxamide], the inhibition at 0.1 µM in series [2] was at least 50%. The molecule further had a half-inhibitory concentration (IC50) in series [3] of 2 nM.

Consider `C[C@@H](C(N)=O)[C@H](N)c1nc2ccc(C(C)(C)C)cc2[nH]1` [PF-06305591], for which, in series [4], the “selectivity (in words)” value is “poor selectivity”. For the same molecule, in series [5], the “bioavailability (in words)” value was “low bioavailability” and the “pharmacokinetic data (in words)” value was “poor pharmacokinetic data”.

For the molecule `COc1c(C2[C@H](C(=O)Nc3ccc(F)c(S(N)(=O)=O)c3)O[C@@](C)(C(F)(F)F)[C@H]2C)ccc(F)c1F` (relative stereo) [Example 81], the inhibition at 0.1 µM in series [2] is at least 50%. For the same molecule, in series [3], the IC50 is below 0.5 nM.

With `CNC(=O)c1ccc(-c2cc(Cl)cc(Cl)c2Cl)c(N)n1` [PF-01247324], the “selectivity (in words)” value in series [4] is “poor selectivity”. Further, in series [5], the “bioavailability (in words)” value is listed as “low bioavailability” and the “pharmacokinetic data (in words)” value is on record as “poor pharmacokinetic data”.

With `[2H]C([2H])([2H])NS(=O)(=O)c1cc(NC(=O)[C@@H]2O[C@@](C)(C(F)(F)F)[C@@H](C)[C@H]2c2ccc(F)c(F)c2OC)ccn1` (relative stereo) [Example 82, rel-(2R,3S,4S,5R)-3-(3,4-difluoro-2-methoxyphenyl)-4,5-dimethyl-N-(2-(N-(methyl-d3)sulfamoyl)pyridin-4-yl)-5-(trifluoromethyl)tetrahydrofuran-2-carboxamide], in series [2], the inhibition at 0.1 µM was at least 50%. In series [3], the IC50 is below 1 nM.
